{
  "source": "patent US20050075354A1",
  "about": "“Complexes of E-2-Methoxy-N(3-{4-[3-methyl-4-(6-methyl-pyridin-3-yloxy)-phenylamino]-quinzazolin-6-YL}-allyl)-acetamide, their method of production, and use” (Pfizer Inc, priority 2002, published 2005)",
  "format_in_all_cases": "physicochemical",
  "key": {"[1]": {"assay": "Hygroscopicity (weight gain at relative humidity)", "conditions": "for Hygroscopicity (by weight): at 90% relative humidity; for Hygroscopicity (general statement): description, no conditions stated"}, "[2]": {"assay": "Chemical stability (general statement)", "conditions": "description, no conditions stated"}, "[3]": {"assay": "Hygroscopicity in relative humidity chambers", "conditions": "after 16 hours", "experimental": "The material was evaluated for hygroscopicity in relative humidity chambers."}},
  "data": [
    {"smiles": "CC1(C)C2CCC1(CS(=O)(=O)O)C(=O)C2.COCC(=O)NC/C=C/c1ccc2ncnc(Nc3ccc(Oc4ccc(C)nc4)c(C)c3)c2c1", "note": "[racemic camsylate, racemic E-2-Methoxy-N-(3-{4-[3-methyl-4-(6-methyl-pyridin-3-yloxy)-phenylamino]-quinazolin-6-yl}-allyl)-acetamide camsylate]", "values": [
      {"measurement": "Hygroscopicity (in words)", "setting": "[1]; camsylate samples, conditions not stated", "result": "hygroscopic to the point of deliquescence"}
    ]},
    {"smiles": "COCC(=O)NC/C=C/c1ccc2ncnc(Nc3ccc(Oc4ccc(C)nc4)c(C)c3)c2c1.O=C(O)/C=C\\C(=O)O.O=C(O)/C=C\\C(=O)O", "note": "[dimaleate, E-2-Methoxy-N-(3-{4-[3-methyl-4-(6-methyl-pyridin-3-yloxy)-phenylamino]-quinazolin-6-yl}-allyl)-acetamide Dimaleate]", "values": [
      {"measurement": "Hygroscopicity (by weight)", "setting": "[1]", "result": 0.6, "unit": "%"},
      {"measurement": "Hygroscopicity (general statement)", "setting": "[1]", "result": "non-hygroscopic"},
      {"measurement": "Chemical stability", "setting": "[2]", "result": "chemically stable"}
    ]},
    {"smiles": "COCC(=O)NC/C=C/c1ccc2ncnc(Nc3ccc(Oc4ccc(C)nc4)c(C)c3)c2c1.O=P(O)(O)O", "note": "[monophosphate, E-2-Methoxy-N-(3{4-[3-methyl-4-(6-methyl-pyridin-3-yloxy)-phenylamino]-quinazolin-6-yl}-allyl)-acetamide Monophosphate]", "values": [
      {"measurement": "Hygroscopicity (general statement)", "setting": "[1]", "result": "non-hygroscopic"},
      {"measurement": "Chemical stability", "setting": "[2]", "result": "chemically stable"}
    ]},
    {"smiles": "COCC(=O)NC/C=C/c1ccc2ncnc(Nc3ccc(Oc4ccc(C)nc4)c(C)c3)c2c1.O=[N+]([O-])O.O=[N+]([O-])O", "note": "[dinitrate, E-2-Methoxy-N-(3-{4-[3-methyl-4-(6-methyl-pyridin-3-yloxy)-phenylamino]-quinazolin-6-yl}-allyl)-acetamide dinitrate]", "values": [
      {"measurement": "Hygroscopicity (by weight)", "setting": "[1]", "result": "~7", "unit": "%"}
    ]},
    {"smiles": "COCC(=O)NC/C=C/c1ccc2ncnc(Nc3ccc(Oc4ccc(C)nc4)c(C)c3)c2c1.Cl", "note": "[monohydrochloride, E-2-Methoxy-N-(3{4-[3-methyl-4-(6-methyl-pyridin-3-yloxy)-phenylamino]-quinazolin-6-yl}-allyl)-acetamide Monohydrochloride]", "values": [
      {"measurement": "Hygroscopicity (general statement)", "setting": "[1]", "result": "non-hygroscopic"},
      {"measurement": "Chemical stability", "setting": "[2]", "result": "chemically stable"}
    ]},
    {"smiles": "COCC(=O)NC/C=C/c1ccc2ncnc(Nc3ccc(Oc4ccc(C)nc4)c(C)c3)c2c1.O=S(=O)(O)c1ccccc1", "note": "[monobesylate, E-2-Methoxy-N-(3-{4-[3-methyl-4-(6-methyl-pyridin-3-yloxy)-phenylamino]-quinazolin-6-yl}-allyl)-acetamide monobesylate]", "values": [
      {"measurement": "Water sorption", "setting": "[3]; 75% RH chamber", "result": "no significant water sorption"},
      {"measurement": "Weight increase", "setting": "[3]; 94% RH chamber", "result": 6.7, "unit": "%"},
      {"measurement": "Deliquescence", "setting": "[3]; 100% relative humidity chamber", "result": "deliquescence was observed"}
    ]},
    {"smiles": "CCS(=O)(=O)O.CCS(=O)(=O)O.COCC(=O)NC/C=C/c1ccc2ncnc(Nc3ccc(Oc4ccc(C)nc4)c(C)c3)c2c1", "note": "[diesylate complex, E-2-Methoxy-N-(3-{4-[3-methyl-4-(6-methyl-pyridin-3-yloxy)-phenylamino]-quinazolin-6-yl}-allyl)-acetamide diesylate]", "values": [
      {"measurement": "Hygroscopicity (by weight)", "setting": "[1]", "result": 45, "unit": "%"}
    ]}
  ]
}
